Test results as given in PubChem BioAssay AID330 (DTP/NCI, 2004).
Values joined by “and” are separate entries in the source; they are usually repeats but may differ in a detail not shown here. Equal entries are not always repeated. Toxic doses and inconclusive results are not listed. How the source made its calls: active means survival T/C of 150% or more; inactive means T/C below 125% in these data.

Tested on: P388 leukemia ip, CD2F1 mice, survival T/C
Experiment: NCI In Vivo Anticancer Drug Screen. Data for tumor model P388 Leukemia (intraperitoneal) in CD2F1 (CDF1) mice
Details: endpoint: median survival time, higher = longer survival
How it was run: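 Mice carrying the transplanted tumor received test compound or vehicle. Survival was recorded in each group, and the value is the treated-group measurement divided by that of the vehicle-treated control group.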

[1] = dose: 50.0 mg/kg/injection, schedule: Q01DX005 (ip), vehicle: saline with Tween-80
[2] = dose: 100.0 mg/kg/injection, schedule: Q01DX005 (ip), vehicle: saline with Tween-80
[3] = dose: 200.0 mg/kg/injection, schedule: Q01DX005 (ip), vehicle: saline with Tween-80
[4] = dose: 100.0 mg/kg/injection, schedule: Q04DX003 (ip), vehicle: saline with Tween-80
[5] = dose: 200.0 mg/kg/injection, schedule: Q04DX003 (ip), vehicle: saline with Tween-80
[6] = dose: 400.0 mg/kg/injection, schedule: Q04DX003 (ip), vehicle: saline with Tween-80
[7] = dose: 50.0 mg/kg/injection, schedule: Q01DX009 (ip), vehicle: saline
[8] = dose: 100.0 mg/kg/injection, schedule: Q01DX009 (ip), vehicle: saline
[9] = dose: 200.0 mg/kg/injection, schedule: Q01DX009 (ip), vehicle: saline
[10] = dose: 50.0 mg/kg/injection, schedule: Q01DX009 (ip), vehicle: Klucel (hydroxypropylcellulose) (HPC)
[11] = dose: 50.0 mg/kg/injection, schedule: Q01DX009 (ip), vehicle: saline with Tween-80
[12] = dose: 100.0 mg/kg/injection, schedule: Q01DX009 (ip), vehicle: saline with Tween-80
[13] = dose: 200.0 mg/kg/injection, schedule: Q01DX009 (ip), vehicle: saline with Tween-80
[14] = dose: 400.0 mg/kg/injection, schedule: Q01DX009 (ip), vehicle: saline with Tween-80
[15] = dose: 60.0 mg/kg/injection, schedule: Q01DX005 (ip), vehicle: saline with Tween-80
[16] = dose: 120.0 mg/kg/injection, schedule: Q01DX005 (ip), vehicle: saline with Tween-80
[17] = dose: 240.0 mg/kg/injection, schedule: Q01DX005 (ip), vehicle: saline with Tween-80

Measured: T/C

CC(=O)[O][Hg][c]1s[c]([Hg][O]C(C)=O)[c]([Hg][O]C(C)=O)[c]1[Hg][O]C(C)=O
inactive: dose: 3.0 mg/kg/injection, schedule: Q01DX009 (ip), vehicle: saline with Tween-80 120 % of control | dose: 4.0 mg/kg/injection, schedule: Q01DX009 (ip), vehicle: saline with Tween-80 109 % of control | dose: 6.0 mg/kg/injection, schedule: Q01DX009 (ip), vehicle: saline with Tween-80 104 % of control | dose: 9.0 mg/kg/injection, schedule: Q01DX009 (ip), vehicle: saline with Tween-80 90 % of control

Cn1c2ccccc2c(=O)c2cc(NC(=O)CCCC(=O)Nc3ccc4c(c3)c(=O)c3ccccc3n4C)ccc21
inactive: [1] 98 % of control | [2] 99 % of control | [3] 101 % of control

[I][Hg][CH2]C1OCCOC1[CH2][Hg][I] (stereo unspecified)
inactive: [4] 118 % of control | [5] 118 % of control | [6] 90 % of control

COc1cc(C(C)(C)C)c2oc3c(c2c1)C(=O)C(C(C)(C)C)=CC3(OC)OC
inactive: [7] 104 % of control | [8] 100 % of control | [9] 97 % of control

COc1ccc(C(=O)CC(C#N)c2ccc(OC)c(OC)c2)cc1OC (stereo unspecified)
inactive: [4] 90 % of control | [5] 86 % of control | [6] 86 % of control

CCON1CCC(OC(=O)CC)(c2ccccc2)C(C)C1 (stereo unspecified)
inactive: dose: 100.0 mg/kg/injection, schedule: Q01DX001 (ip), vehicle: saline 111 % of control | dose: 200.0 mg/kg/injection, schedule: Q01DX001 (ip), vehicle: saline 98 % of control

C=C(C(=O)N(C(C)C)C(C)C)C(C)CC(C)C(=O)N(C(C)C)C(C)C (stereo unspecified)
inactive: dose: 50.0 mg/kg/injection, schedule: Q04DX002 (ip), vehicle: Klucel (hydroxypropylcellulose) (HPC) 99 % of control | dose: 100.0 mg/kg/injection, schedule: Q04DX002 (ip), vehicle: Klucel (hydroxypropylcellulose) (HPC) 104 % of control | dose: 200.0 mg/kg/injection, schedule: Q04DX002 (ip), vehicle: Klucel (hydroxypropylcellulose) (HPC) 107 % of control | dose: 400.0 mg/kg/injection, schedule: Q04DX002 (ip), vehicle: Klucel (hydroxypropylcellulose) (HPC) 104 % of control

COc1ccc2nc(C)cc(N/N=C/c3cccc(C)n3)c2c1
inactive: dose: 12.5 mg/kg/injection, schedule: Q01DX009 (ip), vehicle: Klucel (hydroxypropylcellulose) (HPC) 99 % of control and 104 % of control | dose: 25.0 mg/kg/injection, schedule: Q01DX009 (ip), vehicle: Klucel (hydroxypropylcellulose) (HPC) 99 % of control and 105 % of control | [10] 113 % of control and 122 % of control

CCn1c2ccccc2nc2cc3c(cc21)c(Cl)c(=O)c1ccccc13
inactive: [11] 108 % of control | [12] 104 % of control | [13] 98 % of control

Cc1ccc(S(=O)c2ccccc2)c(C(O)(C(F)(F)F)C(F)(F)F)c1 (stereo unspecified)
inactive: dose: 100.0 mg/kg/injection, schedule: Q04DX003 (ip), vehicle: Klucel (hydroxypropylcellulose) (HPC) 91 % of control | dose: 200.0 mg/kg/injection, schedule: Q04DX003 (ip), vehicle: Klucel (hydroxypropylcellulose) (HPC) 93 % of control | dose: 400.0 mg/kg/injection, schedule: Q04DX003 (ip), vehicle: Klucel (hydroxypropylcellulose) (HPC) 94 % of control

CN(C=O)S(C)(=O)=O
inactive: [11] 100 % of control | [12] 100 % of control | [13] 100 % of control

CN1C(=O)Cn2c(nn(CCN3CCCC3)c(=O)c2=O)-c2cc(Cl)ccc21
inactive: [7] 103 % of control | [8] 105 % of control | [9] 103 % of control

COC(=O)C1(C2(C(=O)OC)NC(C)=C(c3ccccc3)C(=O)O2)NC(C)=C(c2ccccc2)C(=O)O1 (stereo unspecified)
inactive: [1] 97 % of control | [2] 100 % of control | [3] 91 % of control

N#C/C(=C/c1ccccc1)c1ccccc1
inactive: [11] 87 % of control | [12] 88 % of control | [13] 88 % of control | [14] 102 % of control

N=Cc1c(O)n(C2CCCCC2)c(=O)n(C2CCCCC2)c1=O
inactive: [12] 100 % of control | [13] 95 % of control | [14] 100 % of control

Fc1cccc2c(SCCCCCSc3c4ccccc4nc4c(F)cccc34)c3ccccc3nc12
inactive: dose: 60.0 mg/kg/injection, schedule: Q01DX005 (ip), vehicle: Klucel (hydroxypropylcellulose) (HPC) 93 % of control | dose: 120.0 mg/kg/injection, schedule: Q01DX005 (ip), vehicle: Klucel (hydroxypropylcellulose) (HPC) 89 % of control

O=C(NCCN1C(=O)C2C3CCC(O3)C2C1=O)Nc1ccc([N+](=O)[O-])cc1[N+](=O)[O-] (stereo unspecified)
inactive: [15] 91 % of control | [16] 91 % of control

CCOC(=O)NC(NC(=O)OCC)c1cccnc1
inactive: dose: 200.0 mg/kg/injection, schedule: Q04DX003 (ip), vehicle: saline 94 % of control | dose: 400.0 mg/kg/injection, schedule: Q04DX003 (ip), vehicle: saline 101 % of control

O=C(Nc1ccc(C2=NCCCN2)cc1)c1ccc(C(=O)Nc2ccc(C3=NCCCN3)cc2)cc1
active: dose: 5.0 mg/kg/injection, schedule: Q01DX009 (ip), vehicle: saline 300 % of control | dose: 10.8 mg/kg/injection, schedule: Q04DX003 (ip), vehicle: Klucel (hydroxypropylcellulose) (HPC) 151 % of control | dose: 12.0 mg/kg/injection, schedule: Q04DX003 (ip), vehicle: Klucel (hydroxypropylcellulose) (HPC) 151 % of control | dose: 18.0 mg/kg/injection, schedule: Q04DX003 (ip), vehicle: Klucel (hydroxypropylcellulose) (HPC) 165 % of control and 186 % of control and 198 % of control | dose: 20.0 mg/kg/injection, schedule: Q04DX003 (ip), vehicle: Klucel (hydroxypropylcellulose) (HPC) 185 % of control | dose: 20.0 mg/kg/injection, schedule: Q04DX003 (ip), vehicle: saline with Tween-80 204 % of control | dose: 30.0 mg/kg/injection, schedule: Q04DX003 (ip), vehicle: Klucel (hydroxypropylcellulose) (HPC) 201 % of control | dose: 33.3 mg/kg/injection, schedule: Q04DX003 (ip), vehicle: Klucel (hydroxypropylcellulose) (HPC) 250 % of control
inactive: dose: 1.25 mg/kg/injection, schedule: Q04DX003 (ip), vehicle: saline with Tween-80 100 % of control | dose: 2.5 mg/kg/injection, schedule: Q04DX003 (ip), vehicle: saline with Tween-80 113 % of control | dose: 20.0 mg/kg/injection, schedule: Q01DX009 (ip), vehicle: saline 100 % of control | dose: 50.0 mg/kg/injection, schedule: Q04DX003 (ip), vehicle: Klucel (hydroxypropylcellulose) (HPC) 91 % of control

COC(=O)C1CC1(Cl)OC (stereo unspecified)
inactive: [11] 102 % of control | [12] 102 % of control | [13] 105 % of control

O=C1Nc2ccccc2S/C1=C\c1ccccc1C(F)(F)F
inactive: [7] 108 % of control | [8] 106 % of control

O=C(O)CCCCCCCCCOC(C[N+](=O)[O-])C(Cl)(Cl)Cl (stereo unspecified)
inactive: dose: 50.0 mg/kg/injection, schedule: Q01DX009 (ip), vehicle: other 102 % of control | dose: 100.0 mg/kg/injection, schedule: Q01DX009 (ip), vehicle: other 103 % of control | dose: 200.0 mg/kg/injection, schedule: Q01DX009 (ip), vehicle: other 113 % of control

CCn1c(=O)c2n[nH]nc2n(CCCl)c1=O
inactive: [10] 101 % of control | dose: 100.0 mg/kg/injection, schedule: Q01DX009 (ip), vehicle: Klucel (hydroxypropylcellulose) (HPC) 103 % of control | dose: 200.0 mg/kg/injection, schedule: Q01DX009 (ip), vehicle: Klucel (hydroxypropylcellulose) (HPC) 96 % of control

Cc1ccc(NC(=O)/C(Cl)=C2/Sc3ccccc3NC2=O)cc1
inactive: [15] 96 % of control | [16] 100 % of control | [17] 95 % of control

COc1ccc(NC(=O)C(COCc2ccccc2)C(C)=O)cc1 (stereo unspecified)
inactive: [15] 94 % of control | [16] 91 % of control | [17] 92 % of control

OC1(c2ccc(CCc3ccc(C4(O)C(c5ccccc5)=C(c5ccccc5)C(c5ccccc5)=C4c4ccccc4)cc3)cc2)C(c2ccccc2)=C(c2ccccc2)C(c2ccccc2)=C1c1ccccc1
inactive: dose: 6.25 mg/kg/injection, schedule: Q01DX009 (ip), vehicle: saline with Tween-80 100 % of control | dose: 12.5 mg/kg/injection, schedule: Q01DX009 (ip), vehicle: saline with Tween-80 97 % of control | dose: 25.0 mg/kg/injection, schedule: Q01DX009 (ip), vehicle: saline with Tween-80 93 % of control | dose: 200.0 mg/kg/injection, schedule: Q01DX001 (ip), vehicle: Klucel (hydroxypropylcellulose) (HPC) 89 % of control
